Reference: patent publication US20230322781A1 (Northwestern University, priority 2020, published 2023)
“Also recorded” adds a separate entry of the source. Counter-ions that a name gives are not always drawn.

Legend:
[1] = Isothermal titration calorimetry (ITC) with CB[8]; type: binding; conditions: 1000 μM in syringe into CB[8] 50 μM; aqueous NaCl (1 mM), 298 K
Protocol: All microcalorimetric titrations were performed in a thermostated TA Nano Isothermal Titration calorimeter at atmospheric pressure and 298 K. The samples were dissolved in an aqueous NaCl (1.0 mM) solution, in order to improve the solubility of CB[8], and the concentrations of sample were calibrated by UV-Vis absorption spectroscopy after filtered by a 0.45-filter. A solution of one reactant in a syringe was sequentially injected with stirring at 150 rpm into a solution of the other reactant in the sample cell with a constant volume of 185 μL. A representative titration curve is shown in FIG. 24, each titration of reactant into the sample cell gave an apparent reaction heat caused by the formation of the inclusion complex. The reaction heat decreases gradually until a balance was reached, whereupon only the dilution heat was measured. The net reaction heat was obtained by subtracting the dilution heat from the apparent reaction heat. The resulting data were analyzed with NanoAnalyze software using a 1:1 binding model to give the complex stability constant (Ka), standard molar reaction enthalpy (ΔH), and standard deviations. Generally, the first point of the titration curve was disregarded, as there is some liquid mixing near the tip of the injection needle before ITC run. […]
The value for K1 can be determined to be 5.8×10^7 M^−1 by analysis of the UV-Vis titration data. […]

[2] = 1H NMR of equimolar mixture with CB[8]; type: binding; conditions: D2O, 298 K
Excerpt: The peaks in the spectrum were assigned on the basis of in-depth analyses of their 2D ^1H-^1H COSY and ROESY spectra. The chemical shifts of H-7, residing on the central phenylene groups, as well as H-5 and H-6, attached to the C═C double bonds, show (FIG. 2d) large upfield shifts (Δδ=−0.64, −0.43 and −1.12 for H-5, H-6, and H-7, respectively). While the protons on CB[8] display (FIG. 7) small upfield shifts (Δδ=−0.09, −0.11 and −0.13 for H-a, H-b, and H-c, respectively). […] Taken together, it can be concluded that, although OPVEBox^4+ and CBPQT^4+ have the same p-xylylene linkers, only OPVEBox^4+ can form ring-in-ring(s) complexes with CB[8] in aqueous solutions. […]
All solvents and reagents were obtained commercially and used without further purification unless noted otherwise. […] UV-Vis Absorption spectra were recorded in a conventional rectangular quartz cell (10×10×45 mm) on a UV-3600 Shimadzu spectrophotometer. Fluorescence spectra were measured in a rectangular quartz cell (10×10×45 mm) on a HORIBA FluoroMax-4 spectrometer, which was equipped with an integrating sphere for absolute fluorescence quantum yields determination and time-correlated single-photon counting (TCSPC) module for emission decays. […] Electrospray ionization-mass spectra (ESI-MS) were measured on Waters Synapt G2 mass spectrometer. […]

[3] = Water solubility (qualitative statements); type: physicochemical; conditions: H2O
[4] = literature value (ref 34); cited from earlier work

SMILES: c1cc2ccc1C[n+]1ccc(cc1)-c1cc[n+](cc1)Cc1ccc(cc1)C[n+]1ccc(cc1)-c1cc[n+](cc1)C2 [CBPQT^4+, cyclobis(paraquat-p-phenylene)]
- enthalpy change upon addition into CB[8] [1]: no obvious enthalpy change
- binding with CB[8] by 1H NMR [2]: may bind very weakly to the p-xylylene linkers

SMILES: O=C1N2CN3C(=O)N4CN5C(=O)N6CN7C(=O)N8CN9C(=O)N%10CN%11C(=O)N%12CN%13C(=O)N%14CN%15C(=O)N%16CN1C1C2N2CN%17C(=O)N(CN%18C(=O)N(CN%19C(=O)N(CN%20C(=O)N(CN%21C(=O)N(CN%22C(=O)N(CN%23C(=O)N(CN1C2=O)C%16C%15%23)C%14C%13%22)C%12C%11%21)C%10C9%20)C8C7%19)C6C5%18)C4C3%17 (stereo not shown) [CB[8], cucurbit[8]uril]
- water solubility [3]: poor water solubility; also recorded: low solubility

SMILES: CC12CC3CC(C)(C1)CC(N)(C3)C2 [memantine hydrochloride]
- binding affinity Ka for CB[8] [4]: 8.3e+12 M⁻¹
